Measurements published in publication PMC5897531, “Identification of an Alarm Pheromone-Binding Chemosensory Protein From the Invasive Sycamore Lace Bug Corythucha ciliata (Say)” (Frontiers in Physiology, 2018).
Read-outs that look alike come from different tables or passages of the source. Marks after values point to notes of the source that are not given here. Values belong to the compound of their own block, whether it stands above or below them.

Experiments:
[1] = system: sycamore lace bug nymphs; test: Petri dish test, behavioral response of nymphs; assay type: in vivo, Corythucha ciliata; settings: for Chi-square value, choice of nymphs: compound vs. hexane, 20 μl on filter paper, 5 min; for behavioral response of nymphs: petri dish
Description: One test was conducted in a petri dish (15 cm diameter) at 22–26°C. Two filter papers (3 cm diameter) were placed symmetrically on both sides of the petri dish. 20 μl of the compound to be tested (1, 0.1 or 0.01 μg/μl) was added to one filter paper. 20 μl hexane was added as a control to the other filter paper. The filter papers were placed at a distance of 5 cm from the start position at the center of the petri dish where 40 sycamore lace bug nymphs were released. The number of nymphs on each filter paper was recorded after 5 min. Each assay was replicated four times with a new petri dish for each replicate. The choice between hexane and a blank was also tested. […] The numbers of insect on each filter paper were compared using chi-square analysis.

[2] = system: sycamore lace bug nymphs; test: Plant leaf test, repellency rate of nymphs; assay type: in vivo, Corythucha ciliata; settings: for behavioral response of nymphs: plant leaves
Description: To further confirm the behavioral effects of each active substance, the behavioral response of sycamore lace bug nymphs was tested by directly applying the compounds to a P. × acerifolia leaf. […] Photographs were then taken at 0, 2, and 4 min to assess the repellency rate, which was calculated using the following formula: Repellency rate = M/T^*100, where T = the total number of sycamore lace bug nymphs in the tested colony at 0 min, and M = the number of sycamore lace bug nymphs that had moved at 2 or 4 min. Experimental conditions were the same as for the petri dish experiments. Hexane was used as the mock treatment. The repellency rates of the nymphs in each treatment were compared using a Kruskal Wallis H-test followed by Mann-Whitney U-tests.

[3] = system: sycamore lace bug adults; test: Y-shaped olfactometer, behavioral response of adults; assay type: in vivo, Corythucha ciliata; settings: Y-tube; for χ2, choice of adults: P > 0.05; for behavioral response of adults: 1 and 0.1 μg/μl
Description: Compounds that potentially bind with high affinity to CSPs were purchased from Sigma (St Louis, MO, USA) to test their effects on sycamore lace bug behavior. The behavioral response of sycamore lace bug adults (1:1 sex ratio) was assessed using a Y-shaped olfactometer. The length of the arms and the diameter of the tube were 10 and 5 cm, respectively. The authentic standards were dissolved in hexane at concentrations of 1 and 0.1 μg/μl. Then 10 μl of solution was applied to a 1 cm^2 filter paper. The filter paper was placed in one arm of the Y-shaped olfactometer, and 10 μl hexane was placed in the other arm as a control. The amount of airflow was set at 250 ml/min. In each experiment, a single sycamore lace bug adult was released at the base of the olfactometer stem and observed for 10 min. During this time, insects not making any choice were recorded as having “no response”. Insects entering more than halfway into the olfactometer arm and staying for at least 10 s were recorded as having a “response”. After 10 insects were tested, the orientation of the Y-shaped olfactometer was reversed to avoid environmental effects, and the inner wall was cleaned with degreased cotton containing acetone, washed with ethanol, and then washed with distilled water and dried in an oven. The experiment was conducted in a behavioral observation chamber at 26°C. The experiment was repeated seven times, and each time the behavior of 10 insects was tested. The choice of insects between chemicals and hexane was compared using chi-square analysis.

[4] = target: CcilCSP2 (Corythucha ciliata, UniProt A0A2S0M1B9); test: Fluorescence competitive binding assay with 1-NPN
Sequence of CcilCSP2 (A0A2S0M1B9 entry or part of it): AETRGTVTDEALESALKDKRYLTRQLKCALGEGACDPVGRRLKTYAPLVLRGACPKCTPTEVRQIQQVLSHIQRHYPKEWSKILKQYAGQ
Description: Briefly, the sequence of CcilCSP2 encoding the mature CSP protein was expressed in Escherichia coli BL21 (DE3) competent cells (Transgen). Cells were grown at 37°C until OD600 ≈ 0.60, when expression was induced with 1 mM IPTG. After incubating an additional 8 h at 28°C, cells were harvested by centrifugation. The purification of CcilCSP2 was performed using HisTrap affinity columns (GE Healthcare Biosciences, Uppsala, Sweden).

[5] = system: sycamore lace bug nymphs; test: Petri dish test, behavioral response of nymphs; assay type: in vivo, Corythucha ciliata; settings: Geraniol vs. Phenyl benzoate
[6] = target: T1, c18915_g1 (Corythucha ciliata, UniProt A0A2S0M1C0); test: direct fluorescence titration; assay type: binding; settings: fluorescent probe; conditions presumably as for CcilCSP2
T1 construct: gene CSP8; full length 133 aa
T1 sequence (A0A2S0M1C0 22-133): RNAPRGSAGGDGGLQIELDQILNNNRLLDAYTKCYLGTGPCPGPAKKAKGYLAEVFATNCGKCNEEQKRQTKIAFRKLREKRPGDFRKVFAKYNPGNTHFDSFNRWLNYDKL

Kd [4]: 15.2 µM | Displacement of 1-NPN ([4]; competitive binding): more than 50%
SMILES: CC(C)=CCC/C(C)=C/CO [Geraniol, E-3,7-dimethyl-2,6-octadien-1-ol, reference compound]
Chi-square value, choice of nymphs ([1]; 0.01 μg/μl): 5.444^a^* | Chi-square value, choice of nymphs ([1]; 0.1 μg/μl): 10.965^** | Chi-square value, choice of nymphs ([1]; 1 μg/μl): 13.928^** | behavioral response of nymphs [1]: significantly repelled | repellency rate ([2]; 2 min, 0.01 μg/μl): 25%^* | repellency rate ([2]; 2 min, 0.1 μg/μl): 50%^* | repellency rate ([2]; 2 min, 1 μg/μl): 72.41%^* | repellency rate ([2]; 4 min, 0.01 μg/μl): 25%^* | repellency rate ([2]; 4 min, 0.1 μg/μl): 57.14%^* | repellency rate ([2]; 4 min, 1 μg/μl): 79.41%^* | behavioral response of nymphs [2]: significantly repelled | χ2, choice of adults ([3]; 0.1 μg/μl vs. hexane): 1.52 | χ2, choice of adults ([3]; 1 μg/μl vs. hexane): 0.069 | behavioral response of adults [3]: not significantly affected | Chi-square value, choice of nymphs ([5]; 0.01 μg/μl): 0.214 | Chi-square value, choice of nymphs ([5]; 0.1 μg/μl): 0.267 | Chi-square value, choice of nymphs ([5]; 1 μg/μl): 0.083

Displacement of 1-NPN ([4]; competitive binding): more than 50% | Kd ([4]; competitive binding, 1-NPN as fluorescent reporter, calculated from IC50, read-out: KD): 13.9 µM
SMILES: O=C(Oc1ccccc1)c1ccccc1 [Phenyl benzoate]
Chi-square value, choice of nymphs ([1]; 0.01 μg/μl): 0.615 | Chi-square value, choice of nymphs ([1]; 0.1 μg/μl): 14.629^** | Chi-square value, choice of nymphs ([1]; 1 μg/μl): 5.818^* | behavioral response of nymphs [1]: significantly repelled | repellency rate ([2]; 2 min, 0.01 μg/μl): 12% | repellency rate ([2]; 2 min, 0.1 μg/μl): 50%^* | repellency rate ([2]; 2 min, 1 μg/μl): 63.16%^* | repellency rate ([2]; 4 min, 0.01 μg/μl): 13% | repellency rate ([2]; 4 min, 0.1 μg/μl): 57.14%^* | repellency rate ([2]; 4 min, 1 μg/μl): 73.68%^* | behavioral response of nymphs [2]: repellent effect of phenyl benzoate was further confirmed | χ2, choice of adults ([3]; 0.1 μg/μl vs. hexane): 0.083 | χ2, choice of adults ([3]; 1 μg/μl vs. hexane): 0.176 | behavioral response of adults [3]: not significant

SMILES: Cc1ccc(C(C)C)c(O)c1 [Thymol]
Chi-square value, choice of nymphs ([1]; 0.01 μg/μl): 0.400 | Chi-square value, choice of nymphs ([1]; 0.1 μg/μl): 0.111 | Chi-square value, choice of nymphs ([1]; 1 μg/μl): 0.125

SMILES: Cc1ccc(C(C)C)cc1 [p-Cymene]
Chi-square value, choice of nymphs ([1]; 0.01 μg/μl): 0.083 | Chi-square value, choice of nymphs ([1]; 0.1 μg/μl): 0.026 | Chi-square value, choice of nymphs ([1]; 1 μg/μl): 0.048

SMILES: c1ccc2ccccc2c1 [Naphthalene]
Chi-square value, choice of nymphs ([1]; 0.01 μg/μl): 0.243 | Chi-square value, choice of nymphs ([1]; 0.1 μg/μl): 1.190 | Chi-square value, choice of nymphs ([1]; 1 μg/μl): 0.333

SMILES: c1ccc(Nc2cccc3ccccc23)cc1 [1-NPN]
Kd [6]: Affinity of c18915_g1 for 1-NPN

SMILES: c1ccc(Nc2cccc3ccccc23)cc1 [1-NPN, N-Phenyl-1-naphthylamine]
Kd [4]: 2.08 µM
